Legend:
ABUTH [1] = experiment: Pre-emergence herbicidal activity on ABUTH (velvetleaf); assay type: in vivo, Abutilon theophrasti; conditions: lowest tested rate giving 80% or greater inhibition, approx. 14 days after planting and treating, greenhouse
Procedure, shortened: (§1)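 Pre-emergence soil application; seeds covered with sterilized fertilized topsoil, compound in acetone/water (50:50) applied to surface. 30/21 °C greenhouse, overhead irrigation 0.64 cm then mist/subirrigation. Readout: % inhibition vs untreated at ~14 d; GR80 value, max rate typically 1000 g/ha.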

SOLNI [2] = experiment: Pre-emergence herbicidal activity on SOLNI (black nightshade); assay type: in vivo, Solanum nigrum; conditions: lowest tested rate giving 80% or greater inhibition, approx. 14 days after planting and treating, greenhouse
Procedure, shortened: as §1

AMARE [3] = experiment: Pre-emergence herbicidal activity on AMARE (redroot pigweed); assay type: in vivo, Amaranthus retroflexus; conditions: lowest tested rate giving 80% or greater inhibition, approx. 14 days after planting and treating, greenhouse
Procedure, shortened: as §1

DATST [4] = experiment: Pre-emergence herbicidal activity on DATST (jimsonweed); assay type: in vivo, Datura stramonium; conditions: lowest tested rate giving 80% or greater inhibition, approx. 14 days after planting and treating, greenhouse
Procedure, shortened: as §1

CHEAL [5] = experiment: Pre-emergence herbicidal activity on CHEAL (common lambsquarters); assay type: in vivo, Chenopodium album; conditions: lowest tested rate giving 80% or greater inhibition, approx. 14 days after planting and treating, greenhouse
Procedure, shortened: as §1

CONAR [6] = experiment: Pre-emergence herbicidal activity on CONAR (field bindweed); assay type: in vivo, Convolvulus arvensis; conditions: lowest tested rate giving 80% or greater inhibition, approx. 14 days after planting and treating, greenhouse
Procedure, shortened: as §1

POROL [7] = experiment: Pre-emergence herbicidal activity on POROL (common purslane); assay type: in vivo, Portulaca oleracea; conditions: lowest tested rate giving 80% or greater inhibition, approx. 14 days after planting and treating, greenhouse
Procedure, shortened: as §1

CIRAR [8] = experiment: Pre-emergence herbicidal activity on CIRAR (canada thistle, seedling); assay type: in vivo, Cirsium arvense; conditions: lowest tested rate giving 80% or greater inhibition, approx. 14 days after planting and treating, greenhouse
Procedure, shortened: as §1

ECHCG [9] = experiment: Pre-emergence herbicidal activity on ECHCG (barnyardgrass); assay type: in vivo, Echinochloa crus-galli; conditions: lowest tested rate giving 80% or greater inhibition, approx. 14 days after planting and treating, greenhouse
Procedure, shortened: as §1

SORHA [10] = experiment: Pre-emergence herbicidal activity on SORHA (johnsongrass, seedling); assay type: in vivo, Sorghum halepense; conditions: lowest tested rate giving 80% or greater inhibition, approx. 14 days after planting and treating, greenhouse
Procedure, shortened: as §1

SETFA [11] = experiment: Pre-emergence herbicidal activity on SETFA (giant foxtail); assay type: in vivo, Setaria faberi; conditions: lowest tested rate giving 80% or greater inhibition, approx. 14 days after planting and treating, greenhouse
Procedure, shortened: as §1

PANDI [12] = experiment: Pre-emergence herbicidal activity on PANDI (fall panicum); assay type: in vivo, Panicum dichotomiflorum; conditions: lowest tested rate giving 80% or greater inhibition, approx. 14 days after planting and treating, greenhouse
Procedure, shortened: as §1

BRAPP [13] = experiment: Pre-emergence herbicidal activity on BRAPP (broadleaf signalgrass); assay type: in vivo, Brachiaria platyphylla; conditions: lowest tested rate giving 80% or greater inhibition, approx. 14 days after planting and treating, greenhouse
Procedure, shortened: as §1

DIGSA [14] = experiment: Pre-emergence herbicidal activity on DIGSA (large crabgrass); assay type: in vivo, Digitaria sanguinalis; conditions: lowest tested rate giving 80% or greater inhibition, approx. 14 days after planting and treating, greenhouse
Procedure, shortened: as §1

ABUTH [15] = experiment: Post-emergence herbicidal activity on ABUTH (velvetleaf); assay type: in vivo, Abutilon theophrasti; conditions: post-emergence spray; lowest tested rate with 80% or greater inhibition; about 14 days after treatment
Excerpt: (§2) All such uses, and the biological activity enabling such uses, are embraced by the term “herbicidal” herein. Tables 15 and 16 summarize results of tests conducted as described below to determine the pre-emergence herbicidal activity, in the form of a GR80 value, of illustrative compounds of this invention. […] Where herbicidal activity was evident but 80% inhibition was not achieved at the highest rate tested (typically 1000 g/ha), an asterisk (*) is shown in the following tables. Herbicidal activity evident in the form of symptoms of phytotoxicity, in the absence of at least 80% inhibition at any rate, is indicated in the tables by “phyto”. A blank cell in the following tables indicates no herbicidal or phytotoxic response at any rate tested.
(§3) In another set of tests, the post-emergence activity of compounds of this invention was evaluated on the cool season species listed above. The following procedure was used.
(§4) A pre-prepared topsoil mixture (described above) was placed in a pot and compacted to a depth of 1.0 to 1.25 cm from the top of the pot. Seeds of each of several monocotyledonous and dicotyledonous annual plant species were placed on top of the soil The seeds were covered with a mixture of 50% topsoil and 50% Rediearth™ in sufficient quantity to level-fill the pots. The pots were then placed on a greenhouse bench and subirrigated as needed until plants growing from the seeds had emerged and reached a suitable growth stage for post-emergence treatment, typically 9 to 14 days after planting.
(§5) A known amount of each test compound dissolved or suspended in an appropriate organic solvent was diluted with a 50:50 mix of acetone and water and applied to the plants by spraying with a standard spray nozzle in a spray volume of 3,100 l/ha at a spray pressure of […] (30 psig). Control plants were not sprayed.
(§6) After treatment the plants were placed in a greenhouse with a 30/21° C. day/night temperature regime and were subsequently watered as needed for growth. Approximately 14 days after treatment, the plants were observed and herbicidal efficacy recorded as percent inhibition by comparison with control plants.

SOLNI [16] = experiment: Post-emergence herbicidal activity on SOLNI (black nightshade); assay type: in vivo, Solanum nigrum; conditions: post-emergence spray; lowest tested rate with 80% or greater inhibition; about 14 days after treatment
Excerpt: as §2, §3, §4, §5, §6

AMARE [17] = experiment: Post-emergence herbicidal activity on AMARE (redroot pigweed); assay type: in vivo, Amaranthus retroflexus; conditions: post-emergence spray; lowest tested rate with 80% or greater inhibition; about 14 days after treatment
Excerpt: as §2, §3, §4, §5, §6

DATST [18] = experiment: Post-emergence herbicidal activity on DATST (jimsonweed); assay type: in vivo, Datura stramonium; conditions: post-emergence spray; lowest tested rate with 80% or greater inhibition; about 14 days after treatment
Excerpt: as §2, §3, §4, §5, §6

CHEAL [19] = experiment: Post-emergence herbicidal activity on CHEAL (common lambsquarters); assay type: in vivo, Chenopodium album; conditions: post-emergence spray; lowest tested rate with 80% or greater inhibition; about 14 days after treatment
Excerpt: as §2, §3, §4, §5, §6

CONAR [20] = experiment: Post-emergence herbicidal activity on CONAR (field bindweed); assay type: in vivo, Convolvulus arvensis; conditions: post-emergence spray; lowest tested rate with 80% or greater inhibition; about 14 days after treatment
Excerpt: as §2, §3, §4, §5, §6

POROL [21] = experiment: Post-emergence herbicidal activity on POROL (common purslane; table head prints PORAL); assay type: in vivo, Portulaca oleracea; conditions: post-emergence spray; lowest tested rate with 80% or greater inhibition; about 14 days after treatment
Excerpt: as §2, §3, §4, §5, §6

CIRAR [22] = experiment: Post-emergence herbicidal activity on CIRAR (canada thistle, seedling); assay type: in vivo, Cirsium arvense; conditions: post-emergence spray; lowest tested rate with 80% or greater inhibition; about 14 days after treatment
Excerpt: as §2, §3, §4, §5, §6

ECHCG [23] = experiment: Post-emergence herbicidal activity on ECHCG (barnyardgrass); assay type: in vivo, Echinochloa crus-galli; conditions: post-emergence spray; lowest tested rate with 80% or greater inhibition; about 14 days after treatment
Procedure, shortened: (§7)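 Seedlings 9–14 days after planting were sprayed with compound in 50:50 acetone/water at 3,100 l/ha and 511 kPa, with unsprayed controls. Plants were then held in a greenhouse at 30/21° C. day/night. Percent inhibition versus controls was scored about 14 days after treatment.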

PANMI = experiment: Post-emergence herbicidal activity on PANMI (wild proso millet); assay type: in vivo, Panicum miliaceum; conditions: post-emergence spray; lowest tested rate with 80% or greater inhibition; about 14 days after treatment
SORHA [24] = experiment: Post-emergence herbicidal activity on SORHA (johnsongrass, seedling); assay type: in vivo, Sorghum halepense; conditions: post-emergence spray; lowest tested rate with 80% or greater inhibition; about 14 days after treatment
Procedure, shortened: as §7

SETFA [25] = experiment: Post-emergence herbicidal activity on SETFA (giant foxtail); assay type: in vivo, Setaria faberi; conditions: post-emergence spray; lowest tested rate with 80% or greater inhibition; about 14 days after treatment
Procedure, shortened: as §7

PANDI [26] = experiment: Post-emergence herbicidal activity on PANDI (fall panicum); assay type: in vivo, Panicum dichotomiflorum; conditions: post-emergence spray; lowest tested rate with 80% or greater inhibition; about 14 days after treatment
Procedure, shortened: as §7

SORVU = experiment: Post-emergence herbicidal activity on SORVU (shattercane); assay type: in vivo, Sorghum vulgare; conditions: post-emergence spray; lowest tested rate with 80% or greater inhibition; about 14 days after treatment
Procedure, shortened: as §7

BRAPP [27] = experiment: Post-emergence herbicidal activity on BRAPP (broadleaf signalgrass); assay type: in vivo, Brachiaria platyphylla; conditions: post-emergence spray; lowest tested rate with 80% or greater inhibition; about 14 days after treatment
Procedure, shortened: as §7

DIGSA [28] = experiment: Post-emergence herbicidal activity on DIGSA (large crabgrass); assay type: in vivo, Digitaria sanguinalis; conditions: post-emergence spray; lowest tested rate with 80% or greater inhibition; about 14 days after treatment

CC(CNC(=O)c1cccc(C(F)(F)F)c1)NC(=O)c1cccc(I)c1 (stereo not drawn) [Example 59]
Pre-emergence activity (GR80) on ABUTH (ABUTH [1]): phyto | Pre-emergence activity (GR80) on SOLNI (SOLNI [2]): phyto | Pre-emergence activity (GR80) on AMARE (AMARE [3]): 250 g/ha | Pre-emergence activity (GR80) on DATST (DATST [4]): 1000 g/ha | Pre-emergence activity (GR80) on CHEAL (CHEAL [5]): 500 g/ha | Pre-emergence activity (GR80) on CONAR (CONAR [6]): phyto | Pre-emergence activity (GR80) on PORAL (POROL [7]): 125 g/ha | Pre-emergence activity (GR80) on CIRAR (CIRAR [8]): 1000 g/ha | Pre-emergence activity (GR80) on ECHCG (ECHCG [9]): phyto | Pre-emergence activity (GR80) on SORHA (SORHA [10]): phyto | Pre-emergence activity (GR80) on SETFA (SETFA [11]): 1000 g/ha | Pre-emergence activity (GR80) on PANDI (PANDI [12]): phyto | Pre-emergence activity (GR80) on BRAPP (BRAPP [13]): phyto | Pre-emergence activity (GR80) on DIGSA (DIGSA [14]): phyto | Post-emergence activity (GR80) ABUTH (ABUTH [15]): phyto | Post-emergence activity (GR80) SOLNI (SOLNI [16]): phyto | Post-emergence activity (GR80) AMARE (AMARE [17]): * (Where herbicidal activity was evident but 80% inhibition was not achieved at the highest rate tested (typically 1000 g/ha), an asterisk (*) is shown) | Post-emergence activity (GR80) DATST (DATST [18]): phyto | Post-emergence activity (GR80) CHEAL (CHEAL [19]): [empty] | Post-emergence activity (GR80) CONAR (CONAR [20]): phyto | Post-emergence activity (GR80) PORAL (POROL [21]): [empty] | Post-emergence activity (GR80) CIRAR (CIRAR [22]): phyto | Post-emergence activity (GR80) ECHCG (ECHCG [23]): [empty] | Post-emergence activity (GR80) PANMI (PANMI): [empty] | Post-emergence activity (GR80) SORHA (SORHA [24]): [empty] | Post-emergence activity (GR80) SETFA (SETFA [25]): [empty] | Post-emergence activity (GR80) PANDI (PANDI [26]): phyto | Post-emergence activity (GR80) SORVU (SORVU): [empty] | Post-emergence activity (GR80) BRAPP (BRAPP [27]): phyto | Post-emergence activity (GR80) DIGSA (DIGSA [28]): phyto

Reference: patent US20020052295A1, “Diacyl derivatives of propylene diamine having herbicidal activity” (priority 1999, published 2002)
